Experimental data published in patent publication US20240352145A1, “EFFICACY OF ANTI-TROP-2-SN-38 ANTIBODY DRUG CONJUGATES FOR THERAPY OF TUMORS RELAPSED/REFRACTORY TO CHECKPOINT INHIBITORS” (Immunomedics, Inc., priority 2016, published 2024).

How the values were obtained:
recombinant mouse Trop-2 = target: T1, recombinant mouse Trop-2 (Mus musculus, UniProt Q8BGV3); assay: Trop-2 ELISA, murine; format: binding
T1 construct: purchased Sino Biological, Inc. 50922-M08H
T1 sequence (Q8BGV3 25-317): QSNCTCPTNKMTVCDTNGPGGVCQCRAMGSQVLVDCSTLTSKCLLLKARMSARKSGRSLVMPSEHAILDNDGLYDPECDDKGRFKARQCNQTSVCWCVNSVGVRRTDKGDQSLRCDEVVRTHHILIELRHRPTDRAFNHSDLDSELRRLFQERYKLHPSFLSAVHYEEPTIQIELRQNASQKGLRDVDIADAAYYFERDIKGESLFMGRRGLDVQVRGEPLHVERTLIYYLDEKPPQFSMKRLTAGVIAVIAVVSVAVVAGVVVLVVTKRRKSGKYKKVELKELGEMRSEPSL
Method: Trop-2 ELISA—Recombinant human Trop-2 with a His-tag (Sino Biological, Inc., Bejing, China; Cat #10428-H09H) and recombinant mouse Trop-2 with a His-Tag (Sino Biological, Inc., Cat #50922-M08H) were plated onto Ni-NTA Hissorb strips (Qiagen GmbH Cat #35023) at 1 μg for 1 h at room temperature. The plate was washed four times with PBS-Tween (0.05%) wash buffer. Serial dilutions of hRS7 were made in 1% BSA-PBS dilution buffer to a test range of 0.1 ng/mL to 10 μg/mL. The plates were then incubated for 2 h at room temperature before being washed four times followed by the addition of a peroxidase conjugated secondary antibody (goat anti-human, Fc fragment specific; Jackson Immunoresearch Cat #109-036-098). After a 45-min incubation, the plate was washed and a substrate solution (o-phenylenediamine dihydrochloride (OPD); Sigma, Cat #P828) added to all the wells. Plates were incubated in the dark for 15 min before the reaction was stopped with 4N sulfuric acid. The plates were read at 450 nm on Biotek ELX808 plate reader. Data were analyzed and graphed using Prism GraphPad Software (v4.03) (Advanced Graphics Software, Inc.; Encinitas, CA).

Capan-1 tumors = assay: Capan-1 xenograft therapy; format: in vivo, mouse; conditions: 0.2 mg/kg SN-38 twice weekly x 4 weeks
Method: NCr female athymic nude (nu/nu) mice, 4 to 8 weeks old, and male Swiss-Webster mice, 10 weeks old, were purchased from Taconic Farms. Tolerability studies were performed in Cynomolgus monkeys (Macaca fascicularis; 2.5-4 kg male and female) by SNBL USA, Ltd. Animals were implanted subcutaneously with different human cancer cell lines. Tumor volume (TV) was determined by measurements in 2 dimensions using calipers, with volumes defined as: L×w^2/2, where L is the longest dimension of the tumor and w is the shortest. […] This dosing frequency reflected a consideration of the conjugate's serum half-life […], to allow a more continuous exposure to the ADC.
Statistics—Growth curves are shown as percent change in initial TV over time. Statistical analysis of tumor growth was based on area under the curve (AUC). Profiles of individual tumor growth were obtained through linear-curve modeling. An f-test was employed to determine equality of variance between groups before statistical analysis of growth curves. A 2-tailed t-test was used to assess statistical significance between the various treatment groups and controls, except for the saline control, where a 1-tailed t-test was used (significance at P≤0.05). Statistical comparisons of AUC were performed only up to the time that the first animal within a group was euthanized due to progression.

[1] = mouse, in vivo
Method: One group was injected intravenously with 20 μCi (250-μg protein) of ^111In-sacituzumab govitecan, whereas another group received 20 μCi (250-μg protein) of ^111In-hRS7 IgG. At various timepoints mice (5 per timepoint) were anesthetized, bled via intracardiac puncture, and then euthanized. Tumors and various tissues were removed, weighed, and counted by γ scintillation to determine the percentage injected dose per gram tissue (% ID/g). […] Pharmacokinetic analysis on blood clearance was performed using WinNonLin software (Parsight Corp.).

[2] = test system: human gastric carcinoma xenograft, NCI-N87; assay: NCI-N87 gastric carcinoma xenograft, Example 17; format: in vivo, mouse
Excerpt: In Vivo Therapeutic Studies—NCr female athymic nude (nu/nu) mice, 4-8 weeks old, were purchased from Taconic Farms (Germantown, NY). NCI-N87 gastric tumor xenografts were established by harvesting cells from tissue culture and making a final cell suspension 1:1 in matrigel (BD Bioscience; San Jose, CA), with each mouse receiving a total of 1×10^7 cells s.c. in the right flank. For BxPC-3. xenografts of 1 g were harvested, and a tumor suspension made in HBSS to a concentration of 40% tumor w/v. This suspension was mixed 1:1 with matrigel for a final tumor suspension of 20% w/v. […] For IHC, tumors were allowed to grow to approximately 0.5 cm^3 before the mice were euthanized and the tumors removed, formalin-fixed and paraffin-embedded. For therapy studies, mice were randomized into treatment groups and therapy begun when tumor volumes were approximately 0.25 cm^3.
Mice were euthanized and deemed to have succumbed to disease once tumors grew to greater than 1.0 cm^3 in size. […] Time to progression (TTP) was determined as time post-therapy initiation when the tumor grew more than 20% in size from its nadir.
Survival studies were analyzed using Kaplan-Meier plots (log-rank analysis), using the Prism GraphPad Software (v4.03) software package (Advanced Graphics Software, Inc., Encinitas, CA).

TNBC = assay: Phase I/II, TNBC cohort; format: in vivo, human
Excerpt: Previous treatments included cyclophosphamide, doxorubicin, carboplatin, gemcitabine, capecitabine, eribulin, cisplatinum, anastrozole, vinorelbine, bevacizumab and tamoxifen.

[3] = test system: metastatic non-small cell lung cancer (NSCLC); assay: Phase I/II, metastatic NSCLC cohort; format: in vivo, human
Method: The best responses by RESIST 1.1 criteria were determined (not shown).

urothelial cancer = assay: Phase I/II, urothelial cancer cohort; format: in vivo, human
[4] = mouse, in vivo; remark: listed apart in the source
Capan-1 = assay: In vitro cytotoxicity, Capan-1
Excerpt: Cell lines, antibodies, and chemotherapeutics—All human cancer cell lines used in this study were purchased from the American Type Culture Collection.

gastric cancer = assay: Case, stage IV metastatic gastric cancer

hRS7 IgG
cross-reactivity (recombinant mouse Trop-2): no cross-reactivity with the murine Trop-2

IMMU-132
tumor growth vs untreated and hA20-CL2A-SN-38 (Capan-1 tumors): significantly inhibited tumor growth | tumor-free mice at end of study (Capan-1 tumors; day 140): 50% | amount in tumor vs hRS7 IgG [1]: similar | anti-tumor effects vs non-specific control ([2]; 17.5 mg/kg, twice weekly x 4 weeks): significant anti-tumor effects | median survival time (MST) ([2]; 14 days for saline control): 66 days | mean time to progression (TTP) ([2]; mouse, in vivo): 41.7 ± 4.2 days | partial responders, mice ([2]; mouse, in vivo): 6 of 7 | confirmed complete responses (CR), patients (TNBC; 10 mg/kg): 2 | partial responses (PR), patients (TNBC; 10 mg/kg): 13 | stable disease (SD), patients (TNBC; 10 mg/kg): 25 | objective response rate (TNBC; 15/52): 29% | favorable response rate (CR plus PR plus SD) (TNBC; in vivo): 71% | median time to progression (TNBC; in vivo): 9.4 months | median PFS ([3]; 8 mg/kg): 3.4 months | median PFS ([3]; 10 mg/kg): 3.8 months | patients with PR or SD ([3]; 21/33): 64% | PR, patients ([3]; 29 assessable patients, 8 or 10 mg/kg): 8 | median time to progression ([3]; in vivo): 9/4 | PR, patients (urothelial cancer; 11 assessable patients, 8 or 10 mg/kg): 6 | median time to progression (urothelial cancer; in vivo): 8.1 months | clearance vs unconjugated IgG [4]: no significant difference in the clearance | IC50 (Capan-1): 6.99 nM | tolerability (gastric cancer; 10 mg/kg): some mild nausea and diarrhea | disease reduction from baseline by RECIST (gastric cancer; after another 5 courses): about 35%
